“Also recorded” adds a separate entry of the source. Where two headings read alike, the source gives them in different places.
Legend:
[1] = system: A549, MDA-MB-231, KB, KB-VIN, and MCF-7; test: Antiproliferative SRB assay, values stated across several cell lines; type: cell-based, human; details: for antiproliferative activity (in words): five human tumor cell lines including MDR subline KB-VIN
Experimental: (§1) We tested the fourteen known aspidosperma-type alkaloids (1–14) against chemosensitive KB (originally isolated from epidermoid carcinoma of the nasopharynx) and P-gp over-expressing multidrug-resistant (MDR) KB subline KB-VIN, as well as three additional human cancer cell lines, A549 (lung carcinoma), MDA-MB-231 (triple negative breast cancer), and MCF-7 (estrogen receptor-positive breast cancer), using a sulforhodamine B (SRB) assay (Table 1).
(§2) Antiproliferative activity was determined by the sulforhodamine B (SRB) colorimetric assay as previously described. In brief, human tumor cell lines were cultured in RPMI-1640 medium containing 2 mM l-glutamine and 25 mM HEPES (Gibco), supplemented with 10% fetal bovine serum (Speciality Media), 100 µg/mL streptomycin, 100 IU/mL penicillin, and 0.25 µg/mL amphotericin B (Corning). MDR stock cells (KB-VIN) were maintained in the presence of 100 nM vincristine (VIN) (Sigma-Aldrich, Saint Louis, MI, USA).
(§3) Freshly trypsinized cell suspensions were seeded in 96-well microtiter plates at densities of 4000–11,000 cells per well (based on the cell lines) with compounds. After 72 h in culture with test compounds, cells were fixed in 10% trichloroacetic acid followed by staining with 0.04% sulforhodamine B (Sigma-Aldrich). The bound SRB was solubilized in 10 mM Tris-base and the absorbance at 515 nm was measured using a Microplate Reader (ELx800, Bio-Tek Instruments, Winooski, VT, USA) operated by Gen5 software (BioTek) after solubilizing the protein-bound dye with 10 mM Tris base. The mean IC50 is the concentration of agent that reduced cell growth by 50% compared with vehicle (DMSO) control under the experimental conditions and is the average from at least three independent experiments with duplicate samples.
(§4) The following human tumor cell lines were used in the assay: A549 (lung carcinoma), MDA-MB-231 (triplen-egative breast cancer), KB (originally isolated from epidermoid carcinoma of the nasopharynx), KB-VIN (VIN-resistant KB subline showing MDR phenotype by overexpressing P-gp), MCF-7 (estrogen receptor (ER)-positive, HER2-negative breast cancer). […] All cell lines were obtained from the Lineberger Comprehensive Cancer Center (UNC-CH) or from ATCC (Manassas, VA), except KB-VIN, which was a generous gift from Professor Y.-C. Cheng (Yale University). Paclitaxel was purchased from Sigma-Aldrich.

[2] = biological target: T1, tubulin (colchicine site) (Bos taurus, UniProt P81947+Q6B856); test: Inhibition of [3H]colchicine binding to tubulin; set-up: species or system bovine; details: 5 μM [3H]colchicine, 1 μM tubulin, 5 μM test compound, 37 °C, 10 min, NA = not active; for inhibition at 5 µM: read-out: Tubulin Assay ICB: percent inhibition of [3H]colchicine binding
T1 construct: electrophoretically homogeneous bovine brain tubulin; from tissue; host or cells: bovine brain
Experimental: The data for 6 and 7 indicate that both alkaloids bind to tubulin and inhibit its assembly, and these effects are closely related to their antiproliferative activities against tumor cells. Thus, we further investigated whether the inhibition of tubulin polymerization was the major action of these alkaloids.
(§5) Inhibitory effects of compounds on tubulin assembly were evaluated using electrophoretically homogeneous bovine brain tubulin as described previously using 1.0 mg/mL (10 μM) tubulin. The turbidity development as tubulin assembly was initiated by adding 0.4 mM GTP and followed for 20 min at 30 °C following a rapid temperature jump. Compound concentrations as EC50 values that inhibited the increase in turbidity by 50% relative to a control sample were determined. In colchicine inhibition assays, tubulin (1.0 μM) was incubated with 5.0 μM [^3H] colchicine and 5.0 μM test compound at 37 °C for 10 min, when about 40–60% of maximum colchicine binding occurs in control samples.

KB-VIN cells [3] = test: Immunofluorescence staining of α-tubulin, pH3 and DNA; type: cell-based, human; details: 24 h, 3 × IC50
Experimental: (§6) Figure 2 Mitotic defects in KB-VIN cells treated by compounds. […] Cell cycle distributions (sub-G1, G1, S, G2/M) were analyzed using flow cytometry after staining cells with propidium iodide (PI). […] Fixed cells were stained with antibodies to α-tubulin (green) and phospho-histone H3 (pH3, red), and DAPI was used for DNA (blue). Stained cells were observed by confocal fluorescence microscope. The represented image is a projection of 15~20 optical sections acquired at 0.5~1 µm intervals. […] Bar, 0.025 mm. Additional images are available in Supplementary Figure S1.
To determine whether the cell cycle arrest was due to an antimicrotubule effect, cells treated with compounds were analyzed by immunocytochemistry using antibodies to α-tubulin for microtubules and mitotic spindles, Ser10-phosphorylated histone H3 (pH3) for the condensed chromatins and 4′,6-diamidino-2-phenylindole (DAPI) for DNA. […] Thus, we concluded that these alkaloids are tubulin polymerization inhibitors.
Immunocytochemical analysis was performed as previously described. […] After treatment of cells with the agent for 24 h, cells were fixed with 4% paraformaldehyde in PBS and permeabilized with 0.5% Triton X-100 in PBS. Fixed cells were labeled with mouse monoclonal antibody to α-tubulin (B5-1-2, Sigma) and rabbit IgG to Ser10-phosphorylated histone H3 (p-H3) (#06570, EMD Millipore), followed by FITC-conjugated antibody to mouse IgG (Sigma) and Alexa Fluor 549-conjugated antibody to rabbit IgG (Life Technologies). Nuclei were labeled with DAPI (Sigma). Fluorescently-labeled cells were observed using a confocal microscope (Zeiss, LSM700) with ZEN (black edition) software (Zeiss). The 15~20 optical sections acquired at 0.5~1 µm intervals were stacked and reconstructed using ZEN (black edition) software. Experiments were repeated at least twice for each compound. Final images were prepared using Adobe Photoshop CS3.

[4] = system: KB-VIN (VIN-resistant KB subline showing MDR phenotype by overexpressing P-gp); test: Antiproliferative SRB assay, KB-VIN; details: Homo sapiens, KBVIN, 72 h, read-out: IC50 KB-VIN
Experimental: as §1, §2, §3, §4

A549 (lung carcinoma) = test: Antiproliferative SRB assay, A549; type: cell-based; details: Homo sapiens, A549, SRB assay, 72 h, read-out: IC50 A549
Experimental: as §1, §2, §3, §4

[5] = system: MDA-MB-231 (triple negative breast cancer); test: Antiproliferative SRB assay, MDA-MB-231; type: cell-based; details: Homo sapiens, MDA-MB-231, SRB assay, 72 h, read-out: IC50 MDA-MB-231
Experimental: as §1, §2, §3, §4

[6] = system: KB (originally isolated from epidermoid carcinoma of the nasopharynx); test: Antiproliferative SRB assay, KB; type: cell-based; details: Homo sapiens, SRB assay, 72 h, read-out: IC50 KB
Experimental: as §1, §2, §3, §4

bovine brain tubulin = biological target: T2, bovine brain tubulin (Bos taurus, UniProt P81947+Q6B856); test: Inhibition of purified tubulin assembly (turbidity); type: biochemical; details: 10 μM tubulin, 0.4 mM GTP, 20 min at 30 °C; NA = not active (IC50 > 40 µM); read-out: Tubulin Assay ITA: inhibition of purified tubulin assembly, EC50
T2 construct: electrophoretically homogeneous bovine brain tubulin; from tissue; host or cells: bovine brain
Experimental: as §5

[7] = system: MCF-7 (estrogen receptor-positive breast cancer); test: Antiproliferative SRB assay, MCF-7; type: cell-based; details: Homo sapiens, MCF7, SRB assay, 72 h, read-out: IC50 MCF-7
Experimental: as §1, §2, §3, §4

KB-VIN cells [8] = test: Cell cycle analysis by flow cytometry (PI staining); type: cell-based, human; details: 24 h, 1 × IC50 or 3 × IC50
Experimental: KB-VIN cells were treated with compounds 3, 4, 6, 7, and 13 at their IC50 (1 × IC50) or three-fold IC50 (3 × IC50) concentration, and the cell cycle progression was analyzed by flow cytometer (Figure 2A).
as §6
KB-VIN cells were seeded in 12-well plates at a density of 1 × 10^5 per well and incubated overnight. […] The DNA contents of stained cells were analyzed by flow cytometer (LSRFortessa, BD Biosciences) controlled by FACSDiva software (BD Biosciences). Paclitaxel (PXL) was used at 3 or 6 µM. […] Experiments were repeated a minimum of two times.

[9] = Homo sapiens, A549, KB, KB-VIN, range stated for the group of compounds, read-out: IC50 values ranging over A549, KB and KB-VIN cells

T2 sequence (P81947 whole entry): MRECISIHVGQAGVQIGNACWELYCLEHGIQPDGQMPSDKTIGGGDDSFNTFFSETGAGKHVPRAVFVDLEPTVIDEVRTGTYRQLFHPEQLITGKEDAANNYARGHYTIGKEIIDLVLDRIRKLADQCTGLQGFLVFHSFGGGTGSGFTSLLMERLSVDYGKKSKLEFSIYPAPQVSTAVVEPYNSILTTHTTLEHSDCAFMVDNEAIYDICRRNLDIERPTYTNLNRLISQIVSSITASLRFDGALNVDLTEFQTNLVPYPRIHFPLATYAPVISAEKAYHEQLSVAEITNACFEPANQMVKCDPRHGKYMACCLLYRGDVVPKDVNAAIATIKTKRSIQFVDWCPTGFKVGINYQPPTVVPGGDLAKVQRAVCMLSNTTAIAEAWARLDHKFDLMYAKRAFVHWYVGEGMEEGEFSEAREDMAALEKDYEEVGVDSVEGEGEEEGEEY
T2 sequence (Q6B856 whole entry): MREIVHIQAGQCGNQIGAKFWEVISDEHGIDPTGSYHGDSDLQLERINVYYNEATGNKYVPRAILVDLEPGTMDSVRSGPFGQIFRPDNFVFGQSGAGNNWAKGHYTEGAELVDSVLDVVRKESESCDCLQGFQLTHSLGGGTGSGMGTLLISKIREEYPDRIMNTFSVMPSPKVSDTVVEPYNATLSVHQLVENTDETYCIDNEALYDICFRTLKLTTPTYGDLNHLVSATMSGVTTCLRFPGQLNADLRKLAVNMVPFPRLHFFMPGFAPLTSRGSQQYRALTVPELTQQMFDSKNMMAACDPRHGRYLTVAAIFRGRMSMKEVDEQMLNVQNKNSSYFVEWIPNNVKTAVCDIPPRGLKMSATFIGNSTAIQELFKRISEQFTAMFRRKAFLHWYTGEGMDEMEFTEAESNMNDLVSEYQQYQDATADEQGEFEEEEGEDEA
T1 sequence (P81947 whole entry): as the sequence (P81947 whole entry) above
T1 sequence (Q6B856 whole entry): as the sequence (Q6B856 whole entry) above

Structure (SMILES) | antiproliferative activity (in words) [1] | inhibition at 5 µM [2] [%] | microtubule / mitotic spindle morphology (KB-VIN cells [3]) | IC50 [4] [nM] | IC50 (A549 (lung carcinoma)) [nM] | IC50 [5] [nM] | IC50 [6] [nM] | EC50 (bovine brain tubulin) [nM] | IC50 [7] [nM] | effect on cell cycle progression (KB-VIN cells [8]) | IC50 [1, 9] [nM] | IC50 ([1]; five human tumor cell lines, read-out: IC50 range over the cell lines tested) [nM] | fold rise in potency by a methoxy group at C-11 ([1]; 6 compared with 5, 9 compared with 8) | Tubulin Assay ICB: percent inhibition of [3H]colchicine binding [2] | IC50 (A549 (lung carcinoma); positive controls, unit nM) [nM] | IC50 ([5]; positive controls, unit nM) [nM] | IC50 ([6]; positive controls, unit nM) [nM] | IC50 ([7]; positive controls, unit nM) [nM]
CC[C@@]12CC(C(=O)OC)=C3Nc4cc(O)ccc4[C@@]34CCN(C[C@@H]3O[C@@H]31)[C@@H]24 [Compound 7, 11-hydroxylochnericine] | exhibited antiproliferative activity against all cell lines; also recorded: significant antiproliferative effects against all five tumor cell lines | 35 ± 1 | dotted tubulin aggregations without spindles | 6100 ± 400 | 5600 ± 100 | 9800 ± 900 | 5400 ± 300 | 4600 ± 100 | 10800 ± 800 | accumulation of cells in the G2/M phase; also recorded: cell cycle arrest at G2/M | – | – | – | – | – | – | – | –
CC[C@@]12CC(C(=O)OC)=C3Nc4ccccc4[C@@]34CCN(C[C@@H]3O[C@@H]31)[C@@H]24 [Compound 5, lochnericine] | essentially inactive | 0 | – | > 40000 | > 40000 | > 40000 | > 40000 | > 40000 | > 40000 | – | – | – | – | – | – | – | – | –
COC(=O)C1=C2Nc3cc(O)ccc3C23CCN2CC=CC(C(C)OC(C)=O)(C1)C23 [Compound 13, 19-(R)-acetoxy-11-hydroxytabersonine] | exhibited antiproliferative activity against all cell lines; also recorded: significant antiproliferative effects against all five tumor cell lines | – | dotted tubulin aggregations without spindles | 700 | 700 ± 100 | 900 | 700 | – | 6700 ± 100 | accumulation of cells in the G2/M phase; also recorded: cell cycle arrest at G2/M | 500 to 900 | 600 to 6700 | – | – | – | – | – | –
CC[C@@]12CC(C(=O)OC)=C3Nc4cc(OC)ccc4[C@@]34CCN(C[C@@H]3O[C@@H]31)[C@@H]24 [Compound 6, 14,15-α-epoxy-11-methoxytabersonine] | exhibited antiproliferative activity against all cell lines; also recorded: significant antiproliferative effects against all five tumor cell lines | 54 ± 0.8 | dotted tubulin aggregations without spindles | 500 | 500 | 800 | 500 | 700 | 800 | accumulation of cells in the G2/M phase; also recorded: cell cycle arrest at G2/M | 500 to 900 | – | ~ 60 fold | – | – | – | – | –
COc1ccc(/C=C\c2cc(OC)c(OC)c(OC)c2)cc1O [CA-4, combretastatin A-4, reference compound] | – | 100 ± 0.4 | – | 3.8 ± 0.1 | – | – | – | – | – | – | – | – | – | totally inhibited | 5.5 ± 0.1 | 8.2 ± 0.5 | 3.6 ± 0.1 | 487 ± 11
